# According to ChEMBL document CHEMBL3860091, “Synthesis and activity of newly designed aroxyalkyl or aroxyethoxyethyl derivatives of piperazine on the cardiovascular and the central nervous systems” (Bioorg Med Chem Lett, 2016):
# Activity calls are given as the source filed them. The rule behind the calls is not given here.
# Assays:
# Rattus norvegicus [1] = assay: Inhibition of methoxamine-induced pressor response in normotensive Wistar rat at 1 mg/kg, iv measured 5 mins post dose; assay type: functional, organism-based
# Rattus norvegicus [2] = assay: Hypotensive activity in normotensive anesthetized Wistar rat assessed as diastolic blood pressure at 0.1 mg/kg, iv measured 5 mins post dose (reference value: 81.6 to 115.2 mmHg); assay type: functional
# Rattus norvegicus [3] = assay: Hypotensive activity in normotensive anesthetized Wistar rat assessed as systolic blood pressure at 0.1 mg/kg, iv measured 10 mins post dose (reference value: 107.4 to 148.3 mmHg); assay type: functional
# Rattus norvegicus [4] = assay: Hypotensive activity in normotensive anesthetized Wistar rat assessed as diastolic blood pressure at 0.1 mg/kg, iv measured 30 mins post dose (reference value: 81.6 to 115.2 mmHg); assay type: functional
# Rattus norvegicus [5] = assay: Hypotensive activity in normotensive anesthetized Wistar rat assessed as systolic blood pressure at 0.1 mg/kg, iv measured 60 mins post dose (reference value: 107.4 to 148.3 mmHg); assay type: functional
# Rattus norvegicus [6] = assay: Hypotensive activity in normotensive anesthetized Wistar rat assessed as diastolic blood pressure at 0.1 mg/kg, iv measured 60 mins post dose (reference value: 81.6 to 115.2 mmHg); assay type: functional
# Rattus norvegicus [7] = assay: Inhibition of adrenaline-induced pressor response in normotensive Wistar rat at 1 mg/kg, iv measured 5 mins post dose; assay type: functional, organism-based
# Rattus norvegicus [8] = assay: Hypotensive activity in normotensive anesthetized Wistar rat assessed as systolic blood pressure at 0.1 mg/kg, iv measured 5 mins post dose (reference value: 107.4 to 148.3 mmHg); assay type: functional
# Rattus norvegicus [9] = assay: Hypotensive activity in normotensive anesthetized Wistar rat assessed as systolic blood pressure at 0.1 mg/kg, iv measured 30 mins post dose (reference value: 107.4 to 148.3 mmHg); assay type: functional
# Rattus norvegicus [10] = assay: Hypotensive activity in normotensive anesthetized Wistar rat assessed as diastolic blood pressure at 0.1 mg/kg, iv measured 10 mins post dose (reference value: 81.6 to 115.2 mmHg); assay type: functional
# Rattus norvegicus [11] = assay: Hypotensive activity in normotensive anesthetized Wistar rat assessed as diastolic blood pressure at 0.1 mg/kg, iv measured 20 mins post dose (reference value: 81.6 to 115.2 mmHg); assay type: functional
# Rattus norvegicus [12] = assay: Hypotensive activity in normotensive anesthetized Wistar rat assessed as systolic blood pressure at 0.1 mg/kg, iv measured 20 mins post dose (reference value: 107.4 to 148.3 mmHg); assay type: functional
# [13] = Antidepressant-like activity in albino Swiss (CD-1) mouse assessed as immobility time at 2.5 mg/kg, ip administered 30 mins prior to test measured for last 4 mins of 6 mins observation by forced swim test (reference value: 178.3 +/- 12.3 sec); assay type: functional, organism-based
# Mus musculus = assay: Toxicity in albino Swiss (CD-1) mouse assessed as effect on spontaneous locomotor activity by measuring number of crossings at 10 mg/kg, ip administered 30 mins prior to test measured for last 4 mins of 6 mins observation (reference value: 191.5 to 225.4); assay type: organism-based; settings: in vivo
SMILES,inhibition (Rattus norvegicus [1]),Activity (Rattus norvegicus [2]) [mmHg],Activity (Rattus norvegicus [3]) [mmHg],Activity (Rattus norvegicus [4]) [mmHg],Activity (Rattus norvegicus [5]) [mmHg],Activity (Rattus norvegicus [6]) [mmHg],inhibition (Rattus norvegicus [7]),Activity (Rattus norvegicus [8]) [mmHg],Activity (Rattus norvegicus [9]) [mmHg],Activity (Rattus norvegicus [10]) [mmHg],Activity (Rattus norvegicus [11]) [mmHg],Activity (Rattus norvegicus [12]) [mmHg],TIME [13] [h],Activity (Mus musculus)
COc1ccccc1N1CCN(CCCCOc2c(C)cccc2C)CC1.Cl,Active,112.7,138.3,103,127.7,101.3,Active,142.7,130.3,112.7,104,131.7,–,–
COc1ccccc1N1CCN(CCOCCOc2cccc(C)c2C)CC1.Cl.Cl,–,–,–,–,–,–,–,–,–,–,–,–,0.0447,190
